In one experiment the target is T1, RARβ2 (Homo sapiens, UniProt P10826).
T1 construct: expressed in transfected cells
T1 sequence (P10826 1-448 isoform P10826-2): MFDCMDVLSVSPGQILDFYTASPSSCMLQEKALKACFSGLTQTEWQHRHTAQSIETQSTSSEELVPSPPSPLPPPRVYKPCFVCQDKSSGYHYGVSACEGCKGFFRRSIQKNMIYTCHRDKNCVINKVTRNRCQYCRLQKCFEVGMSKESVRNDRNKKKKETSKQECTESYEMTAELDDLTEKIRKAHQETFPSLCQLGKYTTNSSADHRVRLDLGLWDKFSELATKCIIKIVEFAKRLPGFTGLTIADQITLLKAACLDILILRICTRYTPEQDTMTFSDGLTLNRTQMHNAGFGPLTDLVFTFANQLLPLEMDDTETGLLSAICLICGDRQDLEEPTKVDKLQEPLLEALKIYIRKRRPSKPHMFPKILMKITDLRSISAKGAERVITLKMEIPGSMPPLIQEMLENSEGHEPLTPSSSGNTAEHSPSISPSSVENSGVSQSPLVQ
Nature of the experiment: Receptor Selection and Amplification Technology (R-SAT) functional receptor assay. The experiment is classed as cell-based. The conditions noted are these: for pEC50: Table 1. An excerpt: The functional receptor assay, Receptor Selection and Amplification Technology (R-SAT), was used to investigate the pharmacological properties of known and novel RARβ agonists and antagonists.
Efficacy is relative to the maximal response of the reference ligand, Am-580.

The test system of a further experiment is NTERA-2 Cells. Nature of the experiment: Induction of neuronal differentiation in NTERA-2 cells. The experiment is classed as cell-based.
Where [1] appears, read: Table 1, efficacy relative to the maximal response of the reference ligand Am-580.
Where [2] appears, read: Table 2, efficacy relative to the maximal response of the reference ligand Am-580, read-out: % Eff.
Setting [3] is: Table 2, read-out: pEC50 (converted).
Setting [4] is: Table 1, efficacy relative to the maximal response of the reference ligand Am-580, read-out: % Eff.
Where [5] appears, read: Table 1, read-out: pEC50 (converted).

Data on 21 compounds can be found in patent US20090176837A1, “COMPOUNDS WITH ACTIVITY AT RETINOIC ACID RECEPTORS” (SONY CORPORATION, priority 2006, published 2009).

Where two headings read alike, the source gives them in different places.

Consider `CCCCCCCCc1ccc(-c2ccc(C(=O)O)cc2)cc1` [Compound 6], for which the negative logarithm of the EC50 (pEC50) at RARβ2 was 7.73. In addition, the “% Eff.” value on RARβ2 (setting [1]) is reported as 104%. Further, the neuronal differentiation entry in the experiment with NTERA-2 Cells is on record as “induce neuronal differentiation”.
`CCCCCCCCc1ccc(-c2ccc(C(=O)OCCc3ccccn3)cc2)cc1` [Compound 68]: in the experiment on NTERA-2 Cells, the neuronal differentiation entry was “induce neuronal differentiation”.
For `CCCCCCOc1ccc(-c2ccc(C(=O)OCc3ccco3)cc2)cc1` [Compound 41, 4′-Hexyloxy-biphenyl-4-carboxylic acid furan-2-ylmethyl ester], the Emax on RARβ2 (setting [2]) is 25%. For the same compound, the EC50 at RARβ2 (setting [3]) is 178 nM.
For `CCCCCCCOc1ccc(-c2ccc(C(=O)OCCC#N)cc2)cc1` [Compound 39, 4′-Heptyloxy-biphenyl-4-carboxylic acid 2-cyano-ethyl ester], the “% Eff.” value at RARβ2 (Table 2, efficacy relative to the maximal response of the reference ligand Am-580) turned out to be 42%. For the same compound, at RARβ2 (setting [3]), the EC50 is 174 nM.
`CCCCCCc1ccc(-c2ccc(C(=O)Nc3ccc(C)cn3)cc2)cc1` [Compound 63, 4′-Hexyl-biphenyl-4-carboxylic acid (5-methyl-pyridin-2-yl)-amide]: on RARβ2 (setting [4]), the Emax came to 36%. Moreover, at RARβ2 (setting [5]), the EC50 is 891 nM.
With `CCCCCCNC(=O)COc1nc(-c2ccc(C(=O)O)cc2)sc1C` [Compound 13, 4-(4-Hexylcarbamoylmethoxy-5-methyl-thiazol-2-yl)-benzoic acid], the Emax on RARβ2 (setting [4]) came out at 85%. For the same compound, on RARβ2 (setting [5]), the EC50 was 41.7 nM.
Take `CCCCCCCCc1ccc(-c2ccc(C(=O)O)c(C)c2)cc1` [Compound 55, 3-Methyl-4′-octyl[1,1′-biphenyl]-4-carboxylic acid]: on RARβ2 (setting [4]), the Emax came out at 84%. On RARβ2 (setting [5]), the EC50 is 676 nM.
On RARβ2, `CC(C)CCCCOc1ccc(-c2ccc(C(=O)O)cc2)cc1` [Compound 25, 4′-(5-Methyl-hexyloxy)-biphenyl-4-carboxylic acid] yielded a negative-log EC50 (pEC50) of 7.20. Besides, the Emax on RARβ2 (setting [4]) was 65%.
For `CCCCCCCCCc1ccc(-c2ccc(C(=O)O)cc2)cc1` [Compound 2, 4′-Nonyl-biphenyl-4-carboxylic acid], the Emax at RARβ2 (setting [4]) was determined as 126%. In addition, on RARβ2 (setting [5]), the EC50 is 7.94 nM.
For `CCCCOCCOc1cc(C)c(-c2ccc(C(=O)O)cc2)cc1C` [Compound 44, 4′-(2-Butoxyethoxy)-2′,5′-dimethyl[1,1-biphenyl]-4-carboxylic acid], at RARβ2 (setting [4]), the Emax is 41%. Further, the EC50 at RARβ2 (setting [5]) was 245 nM.
Take `Cc1sc(-c2ccc(C(=O)O)cc2)nc1OCC(=O)NC(C)CCC(C)C` (stereo not drawn) [Compound 57, 4-[4-[2-[(1,4-Dimethylpentyl)amino]-2-oxoethoxy]-5-methyl-2-thiazolyl]-benzoic acid]: the Emax on RARβ2 (setting [4]) turned out to be 77%. In addition, the EC50 at RARβ2 (setting [5]) was 676 nM.
The corresponding values for `CCCCC(CC)COc1nc(-c2ccc(C(=O)O)cc2)sc1C` (stereo not drawn) [Compound 46, 4-[4-(2-Ethyl-hexyloxy)-5-methyl-thiazol-2-yl]-benzoic acid] are 54% and 263 nM.
For `CCCCCCCCOc1ccc(-c2ccc(C(=O)NCCC#N)cc2)cc1` [Compound 51, 4′-Octyloxy-biphenyl-4-carboxylic acid (2-cyano-ethyl)-amide] the same measures were 59% and 309 nM.
For `CCCCCCCCOc1ccc(-c2ccc(C(=O)NCCc3ccccn3)cc2)cc1` [Compound 54, 4′-Octyloxy-biphenyl-4-carboxylic acid (2-pyridin-2-yl-ethyl)-amide] the same measures were 39% and 661 nM.
The compound `CCCCCCCCc1ccc(-c2ccc(C(=O)O)cc2)cc1` [Compound 35] returned a pEC50 on RARβ2 of 6.94. For the same compound, the “% Eff.” value on RARβ2 (setting [1]) amounted to 83%.
For the compound `CCCCCCOc1cc(C)c(-c2ccc(C(=O)O)cc2)cc1C` [Compound 11, 4′-(Hexyloxy)-2′,5′-dimethyl[1,1′-biphenyl]-4-carboxylic acid], the Emax on RARβ2 (setting [4]) is 78%. Also, the EC50 on RARβ2 (setting [5]) is 27.5 nM.
Consider `CCCCCCCCc1ccc(-c2ccc(C(=O)OCc3ccco3)cc2)cc1` [Compound 48, 4′-Octyl-biphenyl-4-carboxylic acid furan-2-ylmethyl ester], for which the Emax on RARβ2 (setting [2]) was determined as 49%. The EC50 on RARβ2 (setting [3]) is 275 nM.
Consider `CCCCCCCc1ccc(-c2ccc(C(=O)O)cc2F)cc1` [Compound 22, 2-Fluoro-4′-heptyl[1,1′-biphenyl]-4-carboxylic acid], for which the Emax at RARβ2 (setting [4]) is 36%. Further, the EC50 at RARβ2 (setting [5]) was 57.5 nM.
Turning to `CCCCOCCOc1ccc(-c2ccc(C(=O)O)cc2)cc1` [Compound 18, 4′-(2-Butoxyethoxy)-[1,1-biphenyl]-4-carboxylic acid], the Emax on RARβ2 (setting [4]) came to 108%. Further, the EC50 at RARβ2 (setting [5]) is 47.9 nM.
For the compound `CCCCCCCCOc1ccc(-c2ccc(C(=O)OCCC#N)cc2)cc1` [Compound 42, 4′-Octyloxy-biphenyl-4-carboxylic acid 2-cyano-ethyl ester], on RARβ2 (setting [2]), the Emax was found to be 46%. Further, the EC50 on RARβ2 (setting [3]) was 195 nM.
`CCCCCCCCc1ccc(-c2ccc(C(=O)O)cc2)cc1` [Compound 53, 4′-Octyl[1,1′-biphenyl]-4-carboxylic acid]: the “% Eff.” value on RARβ2 (setting [1]) came to 99%. Besides, at RARβ2 (setting [5]), the EC50 was 513 nM.
